Measured values as given in patent US12642859B2, “Macropinocytosis selective monobody-drug conjugates” (priority 2020, dated 2026).
Square brackets hold non-standard residues; d marks the D form. Peptide text beside a SMILES is read from it. * marks the point of attachment. Dolaproine = CO[C@@H]([C@@H]1CCCN1)[C@@H](C)C(=O)O; Dil = CC[C@H](C)[C@H](NC)[C@@H](CC(=O)O)OC; X1 = C[C@@H](N*)[C@@H](O)c1ccccc1; NMeV = CN[C@H](C(=O)O)C(C)C

Tests used:
HeLa KRas^V12 cells = assay: Macropinocytic uptake of fluorescently labeled non-binding FN domain, co-localization with TMR-dextran (doxycycline-inducible system); assay type: cell-based, human
Text: (§1) FIG. 2A and FIG. 2B show the uptake of the fluorescently-tagged monobody and MP marker in human PDAC MIA PaCa and HeLa or HeLa KRas^V12 cells. Co-localization of the fluorescently-tagged monobody (green) and MP marker (dextran, red) in. DAPI, blue. Boxed region is enlarged, inset.
(§2) To determine if non-binding FN domains could be internalized, a well-established doxycycline-inducible mutant KRas^V12 HeLa cell system (hereafter, HeLa KRas^V12) was used in which macropinocytosis is monitored by high-molecular-weight (70 kDa) tetramethyl-rhodamine labeled (TMR−) dextran.

[1] = test system: mutant KRas PDAC cell line MIA PaCa-2; assay: Macropinocytic uptake, co-localization with dextran; assay type: cell-based, human
Text: as §1, §2

KPC 1203 cells = assay: as above; assay type: cell-based, mouse
[2] = test system: KMS11 WT Ras, L363 Mutant NRAS, and RPMI 8226 Mutant KRas cells; assay: Uptake of fluorescently-tagged monobody and MP marker in multiple myeloma cell lines; assay type: cell-based, human
Text: FIGS. 14A-14C show uptake of fluorescently-tagged monobody and MP marker in human multiple myeloma cancer cell lines. FIGS. 14A and 14B are images showing co-localization of the fluorescently-tagged monobody (red) and MP marker (dextran, green) in KMS11 WT Ras, L363 Mutant NRAS, and RPMI 8226 Mutant KRas cells. DAPI, blue.
The differential uptake was established not only in cell lines of solid tumors, but also in blood cancer such as multiple myeloma. […] Using a similar system to the HeLa KRas^V12 inducible system, we created an inducible KRas^V12 cell system in wild type KRas KMS11 multiple myeloma cells.

[3] = Ex vivo organ toxicity analysis (H&E, apoptotic markers, tubulin staining) of MIA PaCa tumor bearing mice; assay type: in vivo
Procedure: FIGS. 5A-5B show the enhanced toxicity of FN-MMAE (monobody) in oncogenic KRas cell lines in vivo. In FIG. 5A, established (100-150 mm^3) subcutaneous MiaPaCa and BxPC3 tumors were treated with, PBS (negative control), 0.2 mg/kg of MMAE alone, or 0.2 mg/kg of FN-MMAE non-binding protein conjugate on Days 0, 7, and 14 (yellow arrows). Tumor growth as assessed by volume was slower in FN-MMAE treated animals compared to MMAE treated alone. n=4 per treatment group. Error bars represent SEM of tumor volume.
FIGS. 6A-6B show ex vivo analysis and mode of action of MMAE.
To test the effects in vivo, a MIA PaCa-2 subcutaneous tumor model was used to compare the efficacy of PBS, MMAE, and FN-MMAE (FIG. 5A). After tumors were established, three injections of 0.2 mg/kg drug with respect to MMAE concentration was administered every 7 days. […] This highlights the specificity of reduced uptake by non-macropinocytic cells in relation to free drug, which contributes to the selective effect of the non-binding FN domain-drug conjugate.

Structure (SMILES)	effect of macropinocytosis inhibitor on FN domain and dextran uptake (HeLa KRas^V12 cells)	effect of macropinocytosis inhibitor on uptake of dextran and FN-Cy5.5 [1]	effect of macropinocytosis inhibitor on uptake of dextran and FN-Cy5.5 (KPC 1203 cells)	effect of macropinocytosis inhibitor on FN-Cy5.5 uptake [2]	H&E of ex vivo organs ([3]; MIA PaCa tumor bearing mice)	tubulin staining ([3]; kidneys)	apoptotic marker expression (CC3, HMGB1, cleaved Parp1) ([3]; kidneys, compared to PBS)
CCN(c1nc(N)c(C(=O)NC(=N)N)nc1Cl)C(C)C [EIPA]	blocked both non-binding FN domain and dextran uptake	abolished uptake of both macromolecules	abolished uptake of both macromolecules	abolished			
CC(Sc1nc2ccccc2[nH]1)C(=O)N/N=C/c1cc(Br)ccc1O (centres unmarked) [KH7]				abolished			
CC[C@H](C)[C@@H]([C@@H](CC(=O)N1CCC[C@H]1[C@H](OC)[C@@H](C)C(=O)N[C@H](C)[C@@H](O)c1ccccc1)OC)N(C)C(=O)[C@@H](NC(=O)[C@@H](NC)C(C)C)C(C)C [MMAE, monomethyl auristatin E] (H-[NMeV]V[Dil][Dolaproine]-X1)					visual liver damage	drastically reduced	substantial increase in non-specific toxicity
